Results: the supplement of paper PMC10307832

Legend:
Experiment in all cases: relative viability (nuclei count vs DMSO), 5 days (fraction); higher = more cells survive
[1] = system: NCI-H1648
Procedure, shortened: (§1)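 Lung cancer cell lines in 1536-well plates got either a single drug or a fixed anchor-drug dose together with five library-drug doses (not always all listed) in √10 steps, by pin tool, on the day after seeding. Nuclei were counted after 5 days, and relative viability is the treated-to-vehicle ratio of nuclei counts. Values are medians of duplicate plates.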

[2] = system: SW 1573
Procedure, shortened: as §1

[3] = system: COR-L23
Procedure, shortened: as §1

[4] = system: ChaGo-K-1
Procedure, shortened: as §1

[5] = system: NCI-H1651
Procedure, shortened: as §1

[6] = system: NCI-H1437
Procedure, shortened: as §1

[7] = system: SK-MES-1
Procedure, shortened: as §1

CC(=O)O[C@@]12CO[C@@H]1C[C@H](O)[C@@]1(C)C(=O)[C@H](O)C3=C(C)[C@@H](OC(=O)[C@H](O)[C@@H](NC(=O)OC(C)(C)C)c4ccccc4)C[C@@](O)([C@@H](OC(=O)c4ccccc4)[C@H]21)C3(C)C [Docetaxel] + CC(=O)Nc1cccc(-n2c(=O)n(C3CC3)c(=O)c3c(Nc4ccc(I)cc4F)n(C)c(=O)c(C)c32)c1 [Trametinib] (partner 0.02 µM)
relative viability ([1]; first compound 0.0002 µM): 0.435
relative viability ([1]; first compound 0.000632 µM): 0.456
relative viability ([1]; first compound 0.002 µM): 0.367
relative viability ([1]; first compound 0.006325 µM): 0.288
relative viability ([1]; first compound 0.02 µM): 0.193
relative viability ([2]; first compound 0.0002 µM): 0.467
relative viability ([2]; first compound 0.000632 µM): 0.307
relative viability ([2]; first compound 0.002 µM): 0.165
relative viability ([2]; first compound 0.006325 µM): 0.192
relative viability ([2]; first compound 0.02 µM): 0.108
relative viability ([3]; first compound 0.0002 µM): 0.528
relative viability ([3]; first compound 0.000632 µM): 0.579
relative viability ([3]; first compound 0.002 µM): 0.223
relative viability ([3]; first compound 0.006325 µM): 0.155
relative viability ([3]; first compound 0.02 µM): 0.0909
relative viability ([4]; first compound 0.0002 µM): 0.871
relative viability ([4]; first compound 0.000632 µM): 0.815
relative viability ([4]; first compound 0.002 µM): 0.443
relative viability ([4]; first compound 0.006325 µM): 0.323
relative viability ([4]; first compound 0.02 µM): 0.157
relative viability ([5]; first compound 0.0002 µM): 0.843
relative viability ([5]; first compound 0.000632 µM): 0.83
relative viability ([5]; first compound 0.002 µM): 0.586
relative viability ([5]; first compound 0.006325 µM): 0.268
relative viability ([6]; first compound 0.0002 µM): 0.528
relative viability ([6]; first compound 0.000632 µM): 0.501
relative viability ([6]; first compound 0.002 µM): 0.264
relative viability ([6]; first compound 0.006325 µM): 0.216
relative viability ([7]; first compound 0.0002 µM): 0.63
relative viability ([7]; first compound 0.000632 µM): 0.758
relative viability ([7]; first compound 0.002 µM): 0.436
relative viability ([7]; first compound 0.006325 µM): 0.313
relative viability ([7]; first compound 0.02 µM): 0.185

COc1cc2nccc(Oc3ccc(NC(=O)Nc4cc(C)on4)c(Cl)c3)c2cc1OC [Tivozanib] + CC(=O)Nc1cccc(-n2c(=O)n(C3CC3)c(=O)c3c(Nc4ccc(I)cc4F)n(C)c(=O)c(C)c32)c1 [Trametinib] (partner 0.02 µM)
relative viability ([1]; first compound 0.005 µM): 0.478
relative viability ([1]; first compound 0.01581 µM): 0.604
relative viability ([1]; first compound 0.05 µM): 0.473
relative viability ([1]; first compound 0.1581 µM): 0.442
relative viability ([1]; first compound 0.5 µM): 0.429
relative viability ([2]; first compound 0.005 µM): 0.541
relative viability ([2]; first compound 0.01581 µM): 0.644
relative viability ([2]; first compound 0.05 µM): 0.464
relative viability ([2]; first compound 0.1581 µM): 0.457
relative viability ([2]; first compound 0.5 µM): 0.416
relative viability ([3]; first compound 0.005 µM): 0.542
relative viability ([3]; first compound 0.01581 µM): 0.577
relative viability ([3]; first compound 0.05 µM): 0.588
relative viability ([3]; first compound 0.1581 µM): 0.421
relative viability ([3]; first compound 0.5 µM): 0.545
relative viability ([4]; first compound 0.005 µM): 0.853
relative viability ([4]; first compound 0.01581 µM): 0.89
relative viability ([4]; first compound 0.05 µM): 0.875
relative viability ([4]; first compound 0.1581 µM): 0.859
relative viability ([4]; first compound 0.5 µM): 0.868
relative viability ([5]; first compound 0.005 µM): 0.816
relative viability ([5]; first compound 0.01581 µM): 0.808
relative viability ([5]; first compound 0.05 µM): 0.821
relative viability ([5]; first compound 0.1581 µM): 0.866
relative viability ([5]; first compound 0.5 µM): 0.828
relative viability ([6]; first compound 0.005 µM): 0.567
relative viability ([6]; first compound 0.01581 µM): 0.535
relative viability ([6]; first compound 0.05 µM): 0.592
relative viability ([6]; first compound 0.1581 µM): 0.49
relative viability ([6]; first compound 0.5 µM): 0.522
relative viability ([7]; first compound 0.005 µM): 0.542
relative viability ([7]; first compound 0.01581 µM): 0.602
relative viability ([7]; first compound 0.05 µM): 0.558
relative viability ([7]; first compound 0.1581 µM): 0.542
relative viability ([7]; first compound 0.5 µM): 0.7
